pIC50: −log10 of the molar value.
Columns and labels:
LIXC-006 = assay: 7-day proliferation assay, Calcein AM staining; assay type: cell-based, human; conditions: Homo sapiens, 168 h, Example 6, n 2
Experimental: (§1) The cells were seeded in a 96-well plate, test compound or DMSO was added and the plate was incubated for additional four days or 7 days (Calcein AM assay). Viable cell counts were determined after detachment by treatment with trypsin either by trypan blue exclusion, flow cytometry, indirectly by measuring ATP content by addition of an ATP measuring reagent (CellTiter Glo), or Calcein AM, prepared according to the instruction of the manufacturer directly.
(§2) XLfit software ((Fit model: Dose response one site/^F(x)[fit=(A+((B−A)/(1+((C/x)^D))))]) for curve fitting and IC50 calculation) was used for curve fitting and IC50 calculation.
(§3) In vitro evaluation of a sanglifehrin macrocyclic analogue (1) for anticancer activity against human hepatocyte cancer cell lines in comparison with NV556 (10) a 7-day proliferation assay. The cell numbers were determined by Calcein AM staining as described in the methods section. Data are from one experiment with each cell line testing duplicate samples of 9 concentrations of each compound. Both compounds were included in each experiment.
as §3, with “the cyclophilin inhibitor alisporivir and the kinase inhibitor sorafenib in” for “NV556 (10)”, “one single” for “one”, “or means of two independent experiments” for “with each cell line”, “All three” for “Both”

HepG2 = assay: 7-day proliferation assay, Calcein AM staining; assay type: cell-based; conditions: Homo sapiens, 168 h, Example 6, n 2
Experimental: as §1, §2
as §3, with “the cyclophilin inhibitor alisporivir and the kinase inhibitor sorafenib in” for “NV556 (10)”, “one single” for “one”, “or means of two independent experiments” for “with each cell line”, “All three” for “Both”

LIXC-003 = assay: 7-day proliferation assay, Calcein AM staining; assay type: cell-based; conditions: Homo sapiens, 168 h, Example 6, n 2
Experimental: as §1, §2
as §3, with “the cyclophilin inhibitor alisporivir and the kinase inhibitor sorafenib in” for “NV556 (10)”, “one single” for “one”, “or means of two independent experiments” for “with each cell line”, “All three” for “Both”

LIXC-011 = assay: 7-day proliferation assay, Calcein AM staining; assay type: cell-based; conditions: Homo sapiens, 168 h, Example 6, n 1
Experimental: as §1, §2
as §3, with “the cyclophilin inhibitor alisporivir and the kinase inhibitor sorafenib in” for “NV556 (10)”, “one single” for “one”, “or means of two independent experiments” for “with each cell line”, “All three” for “Both”

LIXC-004 = assay: 7-day proliferation assay, Calcein AM staining; assay type: cell-based; conditions: Homo sapiens, 168 h, Example 6, n 2
Experimental: as §1, §2
as §3, with “the cyclophilin inhibitor alisporivir and the kinase inhibitor sorafenib in” for “NV556 (10)”, “one single” for “one”, “or means of two independent experiments” for “with each cell line”, “All three” for “Both”

LIXC-012 = assay: 7-day proliferation assay, Calcein AM staining; assay type: cell-based; conditions: Homo sapiens, 168 h, Example 6, n 2
Experimental: as §1, §2
as §3, with “the cyclophilin inhibitor alisporivir and the kinase inhibitor sorafenib in” for “NV556 (10)”, “one single” for “one”, “or means of two independent experiments” for “with each cell line”, “All three” for “Both”

LIXC-086 = assay: 7-day proliferation assay, Calcein AM staining; assay type: cell-based, human; conditions: Homo sapiens, 168 h, Example 6, n 1
Experimental: as §1, §2, §3
as §3, with “the cyclophilin inhibitor alisporivir and the kinase inhibitor sorafenib in” for “NV556 (10)”, “one single” for “one”, “or means of two independent experiments” for “with each cell line”, “All three” for “Both”

Hep3B2.1-7-Luc = assay: 7-day proliferation assay, Calcein AM staining; assay type: cell-based, human; conditions: Homo sapiens, 168 h, Example 6, n 1
Experimental: as §1, §2, §3
as §3, with “the cyclophilin inhibitor alisporivir and the kinase inhibitor sorafenib in” for “NV556 (10)”, “one single” for “one”, “or means of two independent experiments” for “with each cell line”, “All three” for “Both”

LIXC-066 = assay: 7-day proliferation assay, Calcein AM staining; assay type: cell-based, human; conditions: Homo sapiens, 168 h, Example 6, n 1
Experimental: as §1, §2, §3
as §3, with “the cyclophilin inhibitor alisporivir and the kinase inhibitor sorafenib in” for “NV556 (10)”, “one single” for “one”, “or means of two independent experiments” for “with each cell line”, “All three” for “Both”

cyclophilin A (CyPA) = cyclophilin A (CyPA) (Homo sapiens, UniProt P62937); conditions: Sedrani et al., 2003; cited from earlier work
cyclophilin A (CyPA), sequence (P62937 whole entry, species assumed): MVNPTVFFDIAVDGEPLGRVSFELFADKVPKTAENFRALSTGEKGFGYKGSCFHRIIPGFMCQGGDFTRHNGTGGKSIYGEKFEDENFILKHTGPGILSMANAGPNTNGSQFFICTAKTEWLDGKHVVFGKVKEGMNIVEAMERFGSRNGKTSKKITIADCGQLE

| pIC50 (HepG2) | pIC50 (Hep3B2.1-7-Luc) | Structure (SMILES) | pIC50 (LIXC-006) | pIC50 (LIXC-003) | pIC50 (LIXC-011) | pIC50 (LIXC-004) | pIC50 (LIXC-012) | pIC50 (LIXC-086) | pIC50 (LIXC-066) | affinity for CyPA (cyclophilin A (CyPA)) |
| --- | --- | --- | --- | --- | --- | --- | --- | --- | --- | --- |
| 5.53 | – | CNC(=O)c1cc(Oc2ccc(NC(=O)Nc3ccc(Cl)c(C(F)(F)F)c3)cc2)ccn1 [Sorafenib, sorafenib] | 5.40 | 8.40 | 6.27 | 5.66 | 5.94 | – | – | – |
| 5.50 | 5.54 | C/C=C/C[C@@H](C)[C@@H](O)[C@H]1C(=O)N[C@@H](CC)C(=O)N(C)[C@H](C)C(=O)N(CC)[C@@H](C(C)C)C(=O)N[C@@H](C(C)C)C(=O)N(C)[C@@H](CC(C)C)C(=O)N[C@@H](C)C(=O)N[C@H](C)C(=O)N(C)[C@@H](CC(C)C)C(=O)N(C)[C@@H](CC(C)C)C(=O)N(C)[C@@H](C(C)C)C(=O)N1C [Alisporivir, alisporivir] | 6.00 | 5.33 | 5.06 | 5.42 | 5.49 | 5.65 | 5.79 | – |
| – | – | CC(=O)CCC1C(=O)NC(C(C)C)C(=O)NC(Cc2cccc(O)c2)C(=O)N2CCCC(N2)C(=O)OC(C(C)=CCO)CC=CC=CC(O)C(C)C1O (stereo not shown) [hydroxymacrocycle] | – | – | – | – | – | – | – | strong affinity |

Reference: patent US10857150B2, “Use of sanglifehrin macrocyclic analogues as anticancer compounds” (NEUROVIVE PHARMACEUTICAL AB, priority 2016, dated 2020)
